Values quoted from earlier work, collected in patent US8053463B2, “PPAR active compounds” (Plexxikon Inc., priority 2007, dated 2011).

Tests used:
murine PPARα = target: T1, murine PPARα (Mus musculus, UniProt P23204)
T1 sequence (P23204 1-468): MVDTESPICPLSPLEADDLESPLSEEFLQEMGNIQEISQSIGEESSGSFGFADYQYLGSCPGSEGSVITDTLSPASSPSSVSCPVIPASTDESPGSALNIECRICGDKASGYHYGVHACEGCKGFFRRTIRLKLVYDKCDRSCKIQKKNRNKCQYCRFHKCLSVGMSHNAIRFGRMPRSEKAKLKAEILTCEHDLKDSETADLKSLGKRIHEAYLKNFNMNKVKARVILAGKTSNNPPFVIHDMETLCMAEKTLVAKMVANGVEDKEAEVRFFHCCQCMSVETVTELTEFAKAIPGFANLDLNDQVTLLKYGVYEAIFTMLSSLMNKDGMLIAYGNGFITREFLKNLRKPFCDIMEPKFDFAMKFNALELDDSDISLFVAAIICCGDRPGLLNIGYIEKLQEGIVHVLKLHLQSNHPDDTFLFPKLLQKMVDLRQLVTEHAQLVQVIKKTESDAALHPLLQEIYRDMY

PPARδ = target: T2, PPARδ (Homo sapiens, UniProt Q03181)
T2 sequence (Q03181 1-441): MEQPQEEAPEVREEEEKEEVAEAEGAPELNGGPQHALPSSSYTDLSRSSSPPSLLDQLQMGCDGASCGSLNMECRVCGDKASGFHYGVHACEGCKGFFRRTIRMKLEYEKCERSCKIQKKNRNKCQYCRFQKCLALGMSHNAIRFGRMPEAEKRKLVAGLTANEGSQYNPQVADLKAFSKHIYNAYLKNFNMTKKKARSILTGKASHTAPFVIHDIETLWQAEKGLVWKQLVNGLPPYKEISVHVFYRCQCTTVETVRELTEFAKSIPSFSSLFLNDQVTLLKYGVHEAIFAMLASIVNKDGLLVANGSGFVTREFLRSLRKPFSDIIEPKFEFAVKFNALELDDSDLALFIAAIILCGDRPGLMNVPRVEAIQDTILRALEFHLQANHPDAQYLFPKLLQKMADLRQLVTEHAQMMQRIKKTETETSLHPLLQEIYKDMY

activity on murine PPARα (murine PPARα): inactive
agonist selectivity for PPARδ over PPARγ (PPARδ): approximately 30 fold
Compound: CCCc1c(OCCCOc2ccc(OCC(=O)O)cc2)ccc(C(C)=O)c1O [Compound L-165041]
